Test results reported in publication PMC11322497 (Frontiers in Pharmacology, 2024).

System: high fat diet (HFD) rabbit model of metabolic-associated steatohepatitis (MASH)
Assay: HFD rabbit study, acute 5-day treatment: liver histomorphology (Giemsa, Masson's trichrome, PSR, SHG)
Format: in vivo, New Zealand White rabbits
Conditions: 30 mg/kg p.o. 5 days, week 12; for Ballooning score 0 (no ballooning), share of animals / Ballooning score 1 (few ballooned cells), share of animals / Ballooning score 2 (prominent ballooning), share of animals / Fibrosis (Ishak Score) 0, share of animals / Fibrosis (Ishak Score) 1, share of animals / Fibrosis (Ishak Score) 2, share of animals / Fibrosis (Ishak Score) 3, share of animals / Fibrosis (Ishak Score) 4, share of animals / Fibrosis (Ishak Score) 5, share of animals / Inflammation score 0 (no foci), share of animals / Inflammation score 1 (<2 foci), share of animals / Inflammation score 2 (2–4 foci), share of animals / Inflammation score 3 (> 4 foci), share of animals: n = 3
Method: After 1 week of standard diet, animals (n = 12) were randomly assigned to the following groups (Table 1A): • Control rabbits continued to receive a regular diet (RD) for 12 weeks and were treated for 5 days (days 1–5, p.o.), during the last week before culling, with either vehicle; RD+1W Veh group] or GB1211 (30 mg/kg; RD + 1W 30 mg group); • Rabbits received a high fat diet (HFD) for 12 weeks (RD implemented with 0.5% cholesterol and 2.5% vegetable fat) and were treated for 5 days (days 1–5, p.o.), during the last week before culling, with either vehicle (HFD + 1W Veh group) or GB1211 (30 mg/kg; HFD + 1W 30 mg group).
Liver specimens were fixed in 10% buffered formalin (Sigma-Aldrich Corp., St. Louis, MO), paraffin embedded and sectioned at a thickness of 5 μm with a microtome. The slides were stained with hematoxylin and eosin (H&E; both Bio-Optica, Milan, Italy), following standard protocols for histological analysis, to evaluate the general morphology and tissue structure, and then analyzed to evaluate inflammation and […] using Giemsa and Masson’s trichrome staining, respectively. Briefly, deparaffinized and rehydrated sections were incubated with Giemsa (Bio-Optica) in distilled water at ratio 1:1 or with Masson’s trichrome (Bio-Optica), following the manufacturer’s instructions, as previously described ([Vignozzi et al., 2014]). To evaluate lipid accumulation, liver specimens were also cryosectioned at a thickness of 8 μm, fixed with 4% paraformaldehyde, treated for 2–5 min with isopropanol and stained with Oil Red O (Bio-Optica) for 20 min, following the manufacturer’s instructions.
In liver, collagen content evaluation for fibrosis grade and quantification was conducted by staining using Picrosirius Red Stain kit (Bio-Optica), as per manufacturer’s instructions. Briefly, deparaffinized and rehydrated sections were incubated with the staining solution for 50 min, rinsed with the appropriate reagents and with distilled water, dehydrated through ascending alcohols and xylene, and mounted, as previously described ([Comeglio et al., 2017]).
Blinded images of unstained sections of liver were acquired using a Genesis®200 imaging system (HistoIndex, Singapore) and analyzed by Second Harmonic Generation (SHG) microscopy to visualize collagen and Two-Photon Excitation Fluorescence (TPEF) microscopy to visualize the other tissue structures as previously described ([Liu et al., 2017]).
Briefly, deparaffinized tissue sections were imaged by SHG at 780 nm (specific to collagen-1 and -3) simultaneously with TPEF at 780 nm (collected at 550 nm to visualize tissue structure). Both were captured at a ×20 objective and […] resolution. A specialized artificial intelligence analysis program developed by, and proprietary to, HistoIndex were employed to identify and quantify collagen fibres across liver regions with outputs highlighted below and as previously described ([Liu et al., 2017]): • SHG Overall Area (Percentage of total collagen in overall region). • Strings Overall N. (Number of collagen strings in overall region). • Strings Overall Length (Total length of all collagen strings in overall region). • Strings PT Area (Total area of all collagen strings in portal tract region). • Strings PT Length (Total length of all collagen strings in portal tract region). • Strings PS Area (Total area of all collagen strings in peri-sinusoidal region). • Strings PS Length (Total length of all collagen strings in peri-sinusoidal region).
The grading system for inflammation enumerated the number of foci in each 200x field assessed, according to [Kleiner et al. (2005)]: 0 = no foci; 1 = <2 foci; 2 = 2–4 foci; 3 => 4 foci. As shown in the contingency table (Table 3), statistically higher scoring grades were recorded in the HFD+1W Veh group, compared to RD+1W Veh and HFD + 1W 30 mg (both p < 0.05). […]

[1] = HFD rabbits, p < 0.001 vs. HFD + 1W Veh

OC[C@H]1O[C@H](Sc2cncc(Br)c2)[C@H](O)[C@@H](n2cc(-c3cc(F)c(F)c(F)c3)nn2)[C@H]1O [selvigaltin]
Ballooning score 0 (no ballooning), share of animals (HFD rabbits): 0.0%
Ballooning score 1 (few ballooned cells), share of animals (HFD rabbits): 66.7%
Ballooning score 2 (prominent ballooning), share of animals (HFD rabbits): 33.3%
Fibrosis (Ishak Score) 0, share of animals (HFD rabbits): 0.0%
Fibrosis (Ishak Score) 1, share of animals (HFD rabbits): 0.0%
Fibrosis (Ishak Score) 2, share of animals (HFD rabbits): 33.3%
Fibrosis (Ishak Score) 3, share of animals (HFD rabbits): 66.7%
Fibrosis (Ishak Score) 4, share of animals (HFD rabbits): 0.0%
Fibrosis (Ishak Score) 5, share of animals (HFD rabbits): 0.0%
Inflammation score 0 (no foci), share of animals (HFD rabbits): 100.0%
Inflammation score 1 (<2 foci), share of animals (HFD rabbits): 0.0%
Inflammation score 2 (2–4 foci), share of animals (HFD rabbits): 0.0%
Inflammation score 3 (> 4 foci), share of animals (HFD rabbits): 0.0%
Picrosirius Red percentage of fibrosis area [1]: significantly reduced fibrosis to RD levels
SHG percentage of fibrosis area [1]: normalized
Ballooning score 0 (no ballooning), share of animals (RD rabbits): 100.0%
Ballooning score 1 (few ballooned cells), share of animals (RD rabbits): 0.0%
Ballooning score 2 (prominent ballooning), share of animals (RD rabbits): 0.0%
Fibrosis (Ishak Score) 0, share of animals (RD rabbits): 0.0%
Fibrosis (Ishak Score) 1, share of animals (RD rabbits): 0.0%
Fibrosis (Ishak Score) 2, share of animals (RD rabbits): 33.3%
Fibrosis (Ishak Score) 3, share of animals (RD rabbits): 66.7%
Fibrosis (Ishak Score) 4, share of animals (RD rabbits): 0.0%
Fibrosis (Ishak Score) 5, share of animals (RD rabbits): 0.0%
Inflammation score 0 (no foci), share of animals (RD rabbits): 66.7%
Inflammation score 1 (<2 foci), share of animals (RD rabbits): 33.3%
Inflammation score 2 (2–4 foci), share of animals (RD rabbits): 0.0%
Inflammation score 3 (> 4 foci), share of animals (RD rabbits): 0.0%
